Source: PubChem BioAssay AID248 (DTP/NCI, 2004)
Where “and” joins values, the source holds several entries; their conditions need not be identical. Identical values can stand only once. Inconclusive results and toxic doses are left out. Cut-off read from the data, not from the text of the source: active = T/C of 150% or more; inactive = T/C below 125%.

System: L1210 leukemia ip in BDF1 mice, survival T/C
Assay: NCI In Vivo Anticancer Drug Screen. Data for tumor model L1210 Leukemia (intraperitoneal) in B6D2F1 (BDF1) mice
Settings: endpoint: mean survival time, higher = longer survival
How it was run: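 Each compound was tested against a transplantable tumor grown in mice. The endpoint was survival, with treated animals benchmarked against vehicle controls as a simple ratio.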

[1] = dose: 100.0 mg/kg/injection, schedule: Q01DX001 (ip), vehicle: carboxymethylcellulose (CMC)
[2] = dose: 200.0 mg/kg/injection, schedule: Q01DX001 (ip), vehicle: carboxymethylcellulose (CMC)
[3] = dose: 400.0 mg/kg/injection, schedule: Q01DX001 (ip), vehicle: carboxymethylcellulose (CMC)
[4] = dose: 100.0 mg/kg/injection, schedule: Q01DX001 (ip), vehicle: saline with Tween-80
[5] = dose: 100.0 mg/kg/injection, schedule: Q04DX003 (ip), vehicle: saline with Tween-80
[6] = dose: 200.0 mg/kg/injection, schedule: Q04DX003 (ip), vehicle: saline with Tween-80
[7] = dose: 400.0 mg/kg/injection, schedule: Q04DX003 (ip), vehicle: saline with Tween-80
[8] = dose: 100.0 mg/kg/injection, schedule: Q01DX009 (ip), vehicle: saline
[9] = dose: 100.0 mg/kg/injection, schedule: Q04DX003 (ip), vehicle: saline
[10] = dose: 200.0 mg/kg/injection, schedule: Q01DX009 (ip), vehicle: saline
[11] = dose: 200.0 mg/kg/injection, schedule: Q04DX003 (ip), vehicle: saline
[12] = dose: 400.0 mg/kg/injection, schedule: Q01DX009 (ip), vehicle: saline
[13] = dose: 400.0 mg/kg/injection, schedule: Q04DX003 (ip), vehicle: saline
[14] = dose: 100.0 mg/kg/injection, schedule: Q01DX009 (ip), vehicle: saline with Tween-80
[15] = dose: 200.0 mg/kg/injection, schedule: Q01DX009 (ip), vehicle: saline with Tween-80

Measured: T/C

OC(CI)C(O)C(O)C(O)CI (stereo not drawn)
inactive: dose: 50.0 mg/kg/injection, schedule: Q01DX009 (ip), vehicle: other 101 % of control | dose: 100.0 mg/kg/injection, schedule: Q01DX009 (ip), vehicle: other 101 % of control and 106 % of control | dose: 100.0 mg/kg/injection, schedule: Q## X024 (ip), vehicle: other 103 % of control | dose: 177.0 mg/kg/injection, schedule: Q01DX Z (ip), vehicle: methylcellulose (MC) 92 % of control | dose: 200.0 mg/kg/injection, schedule: Q01DX001 (ip), vehicle: other 103 % of control and 101 % of control | dose: 200.0 mg/kg/injection, schedule: Q01DX009 (ip), vehicle: other 95 % of control and 111 % of control | dose: 200.0 mg/kg/injection, schedule: Q## X003 (ip), vehicle: other 109 % of control | dose: 200.0 mg/kg/injection, schedule: Q## X024 (ip), vehicle: other 111 % of control | dose: 267.0 mg/kg/injection, schedule: Q01DX Z (ip), vehicle: methylcellulose (MC) 108 % of control | dose: 400.0 mg/kg/injection, schedule: Q01DX001 (ip), vehicle: other 97 % of control and 111 % of control | dose: 400.0 mg/kg/injection, schedule: Q01DX009 (ip), vehicle: other 101 % of control | dose: 400.0 mg/kg/injection, schedule: Q01DX Z (ip), vehicle: methylcellulose (MC) 93 % of control | dose: 400.0 mg/kg/injection, schedule: Q## X003 (ip), vehicle: other 109 % of control | dose: 400.0 mg/kg/injection, schedule: Q## X024 (ip), vehicle: other 108 % of control | dose: 600.0 mg/kg/injection, schedule: Q01DX Z (ip), vehicle: methylcellulose (MC) 98 % of control | dose: 800.0 mg/kg/injection, schedule: Q01DX001 (ip), vehicle: other 105 % of control and 101 % of control | dose: 800.0 mg/kg/injection, schedule: Q## X003 (ip), vehicle: other 109 % of control | dose: 800.0 mg/kg/injection, schedule: Q## X024 (ip), vehicle: other 124 % of control

CS(=O)(=O)OCCCOS(C)(=O)=O
inactive: dose: 9.37 mg/kg/injection, schedule: Q01DX009 (ip), vehicle: Klucel (hydroxypropylcellulose) (HPC) 101 % of control | dose: 18.75 mg/kg/injection, schedule: Q01DX009 (ip), vehicle: Klucel (hydroxypropylcellulose) (HPC) 102 % of control | dose: 37.5 mg/kg/injection, schedule: Q01DX009 (ip), vehicle: Klucel (hydroxypropylcellulose) (HPC) 106 % of control | dose: 75.0 mg/kg/injection, schedule: Q01DX009 (ip), vehicle: Klucel (hydroxypropylcellulose) (HPC) 116 % of control | dose: 150.0 mg/kg/injection, schedule: Q01DX009 (ip), vehicle: Klucel (hydroxypropylcellulose) (HPC) 90 % of control

O=[N+]([O-])c1ccc(O)c(C=NCCCN=Cc2cc([N+](=O)[O-])ccc2O)c1
inactive: dose: 100.0 mg/kg/injection, schedule: Q01DX001 (ip), vehicle: saline 90 % of control | dose: 200.0 mg/kg/injection, schedule: Q01DX001 (ip), vehicle: saline 102 % of control | dose: 400.0 mg/kg/injection, schedule: Q01DX001 (ip), vehicle: saline 96 % of control

Cc1cccc(NC(=O)NCCO)c1
inactive: [1] 103 % of control | [2] 109 % of control | [3] 97 % of control

CCCCCCCCCCCCCCCCCCNC(=O)Nc1cccc(OC)c1
inactive: dose: 25.0 mg/kg/injection, schedule: Q04DX002 (ip), vehicle: saline with Tween-80 102 % of control | dose: 50.0 mg/kg/injection, schedule: Q04DX002 (ip), vehicle: saline with Tween-80 89 % of control

Cc1cc(C)n(/N=C/c2ccccc2)c(=O)c1C#N
inactive: [1] 91 % of control | [2] 91 % of control | [3] 91 % of control

CCOC(=O)C1C(=O)C(C(=O)Nc2ccccc2)C(=O)C(C(=O)OCC)C1c1ccc(OC(C)=O)cc1 (stereo not drawn)
inactive: dose: 50.0 mg/kg/injection, schedule: Q01DX001 (ip), vehicle: saline with Tween-80 94 % of control | [4] 100 % of control | dose: 200.0 mg/kg/injection, schedule: Q01DX001 (ip), vehicle: saline with Tween-80 96 % of control

COC1CCC2=C(C1)C(=O)CC1c3ccccc3CCN21 (stereo not drawn) (tested in a mixture with another compound)
inactive: dose: 6.25 mg/kg/injection, schedule: Q04DX003 (ip), vehicle: saline with Tween-80 97 % of control | dose: 12.5 mg/kg/injection, schedule: Q04DX003 (ip), vehicle: saline with Tween-80 107 % of control | dose: 25.0 mg/kg/injection, schedule: Q04DX003 (ip), vehicle: saline with Tween-80 102 % of control

C=CCc1ccc(OC(=O)Nc2ccc([N+](=O)[O-])cc2OC)c(OC)c1
inactive: dose: 100.0 mg/kg/injection, schedule: Q01DX009 (ip), vehicle: Klucel (hydroxypropylcellulose) (HPC) 96 % of control | dose: 200.0 mg/kg/injection, schedule: Q01DX009 (ip), vehicle: Klucel (hydroxypropylcellulose) (HPC) 93 % of control | dose: 400.0 mg/kg/injection, schedule: Q01DX009 (ip), vehicle: Klucel (hydroxypropylcellulose) (HPC) 96 % of control

NC(=O)c1cc(Cl)cc(Cl)c1N1CC[N+](CCCl)=N1
inactive: [4] 103 % of control

COc1cc(C)c(NC(=O)Oc2ccccc2)c(C)c1
inactive: [5] 89 % of control | [6] 91 % of control | [7] 91 % of control

CCCCOc1c(OC)cc(OC)cc1C(=O)O
inactive: [1] 102 % of control | [2] 91 % of control | [3] 86 % of control

Cc1cnc2c(=O)[nH]c(=O)[nH]c2n1
inactive: dose: 12.5 mg/kg/injection, schedule: Q01DX009 (ip), vehicle: Klucel (hydroxypropylcellulose) (HPC) 102 % of control | dose: 25.0 mg/kg/injection, schedule: Q01DX009 (ip), vehicle: Klucel (hydroxypropylcellulose) (HPC) 98 % of control | dose: 50.0 mg/kg/injection, schedule: Q01DX009 (ip), vehicle: Klucel (hydroxypropylcellulose) (HPC) 96 % of control | dose: 100.0 mg/kg/injection, schedule: Q04DX003 (ip), vehicle: Klucel (hydroxypropylcellulose) (HPC) 96 % of control | dose: 200.0 mg/kg/injection, schedule: Q04DX003 (ip), vehicle: Klucel (hydroxypropylcellulose) (HPC) 92 % of control | dose: 400.0 mg/kg/injection, schedule: Q04DX003 (ip), vehicle: Klucel (hydroxypropylcellulose) (HPC) 92 % of control

COC(=O)C(C)CN1CC(C)OC(C)C1 (stereo not drawn)
inactive: [8] 95 % of control | [9] 102 % of control | [10] 97 % of control | [11] 98 % of control | [12] 95 % of control | [13] 104 % of control

O=S(CCO)c1ccc(Cl)cc1 (stereo not drawn)
inactive: dose: 100.0 mg/kg/injection, schedule: Q04DX002 (ip), vehicle: saline with Tween-80 100 % of control and 109 % of control | [5] 118 % of control | dose: 200.0 mg/kg/injection, schedule: Q04DX002 (ip), vehicle: saline with Tween-80 102 % of control and 88 % of control | [6] 106 % of control | dose: 400.0 mg/kg/injection, schedule: Q04DX002 (ip), vehicle: saline with Tween-80 98 % of control and 103 % of control | [7] 100 % of control

Brc1cscc1Cc1ccccc1
inactive: dose: 50.0 mg/kg/injection, schedule: Q01DX009 (ip), vehicle: saline with Tween-80 95 % of control | [14] 95 % of control | [15] 95 % of control

COC(=O)C1CCC2c3ccccc3C(C1)c1ccccc12 (stereo not drawn)
inactive: [14] 97 % of control | [5] 101 % of control | [15] 95 % of control | [6] 95 % of control | dose: 400.0 mg/kg/injection, schedule: Q01DX009 (ip), vehicle: saline with Tween-80 94 % of control | [7] 93 % of control

CC(Br)C(=O)NCC(=O)NCC(=O)O (stereo not drawn)
inactive: [8] 100 % of control | [9] 101 % of control | [10] 89 % of control | [11] 101 % of control | [12] 90 % of control | [13] 97 % of control

Cc1ccc(S(C)=O)c(C)c1 (stereo not drawn)
inactive: [8] 97 % of control | [10] 96 % of control

CCOC(=O)c1ccccc1N(O)C(=O)Nc1ccc(C)cc1
inactive: [5] 97 % of control | [6] 105 % of control | [7] 109 % of control

N#CC1(C#N)C2C=CC(C2)C1(C#N)C#N
inactive: dose: 6.25 mg/kg/injection, schedule: Q01DX009 (ip), vehicle: saline with Tween-80 97 % of control | dose: 12.5 mg/kg/injection, schedule: Q01DX009 (ip), vehicle: saline with Tween-80 97 % of control

Cc1ccc(CC(=S)N2CCOCC2)cc1
inactive: dose: 100.0 mg/kg/injection, schedule: Q01DX001 (ip), vehicle: steriod suspending solution 95 % of control | dose: 200.0 mg/kg/injection, schedule: Q01DX001 (ip), vehicle: steriod suspending solution 98 % of control | dose: 400.0 mg/kg/injection, schedule: Q01DX001 (ip), vehicle: steriod suspending solution 96 % of control
